# Test results: publication PMC6193938, “Characterization of a novel AICARFT inhibitor which potently elevates ZMP and has anti-tumor activity in murine models” (Scientific Reports, 2018)
# Read-outs that look alike come from different tables or passages of the source.
# Tests used:
# NCI-H1437 (lung) = experiment: Low folate & high folate in vitro proliferation assay (Alamar Blue); assay type: cell-based; settings: Homo sapiens
# Method: (§1) Cells lines were acquired from cell banks, see supplemental material, grown using the cell banks recommended culture conditions (Supplemental Table 3). In some experiments noted “low folate” the cells were washed and grown in folate free RPMI-1640 media (Gibco #27016-021) supplemented with 5 ml 1 M Hepes, 5 ml 100 mM Na pyruvate, 2.5 mg/ml glucose and 10% defined FBS (Hyclone #SH30070) per 500 mL media for 5–7 days to deplete intracellular folate levels prior to the start of the experiment. Where noted, cells were maintained in complete “high folate” RPMI-1640 media (ATCC #30-2001) with 10% defined FBS to contrast with the low folate conditions.
# (§2) Cells were cultured using recommended culture conditions unless noted otherwise (Supplemental Table 3). Cells were plated, dosed with compound and incubated at 37 °C for approximately 2 doubling times as determined for each cell line. Cell Titer Glo (Promega) assay was used to measure proliferation according to manufacturer’s recommendations by measuring luminescence with Flexstation3 (Molecular Devices) with 500 ms integration time. […] The % response was fit to a four-parameter logistic equation using ACTIVITYBASE 4.0 to determine the absolute IC50 values.
# (§3) For a limited number of cell lines, compound dosing was performed under high or low folate conditions with cell viability being determined with Alamar Blue rather than an ATP dependent assay. Cells were plated and treated as described above. Proliferation was measured using Alamar Blue Cell Viability Reagent (Invitrogen), and read after approximately 1.5–4 hours incubation at 37 °C on the Envision plate reader (Perkin Elmer) with excitation at 570 nm and emission at 585 nm. The % inhibition for each sample was calculated and fit as described above.
# NCI-H1155 (lung) = experiment: as above; assay type: cell-based; settings: Homo sapiens
# Method: as §1, §2, §3
# NCI-H1993 (lung) = experiment: as above; assay type: cell-based; settings: Homo sapiens
# Method: as §1, §2, §3
# SNU-16 (gastric) = experiment: as above; assay type: cell-based; settings: Homo sapiens
# Method: as §1, §2, §3
# HCT 116 (colon) = experiment: as above; assay type: cell-based; settings: Homo sapiens
# Method: as §1, §2, §3
# MIA PaCa-2 (pancreas) = experiment: as above; assay type: cell-based; settings: Homo sapiens
# Method: as §1, §2, §3
# SW620 (colon) = experiment: as above; assay type: cell-based; settings: Homo sapiens
# Method: as §1, §2, §3
# LIMK1 = molecular target: T1, LIMK1 (Homo sapiens, UniProt P53667); experiment: CEREP protein kinase assay; assay type: biochemical
# T1 construct: purchased CEREP Panlabs (Eurofins)
# TTK = molecular target: T2, TTK (Homo sapiens, UniProt P33981); experiment: CEREP protein kinase assay; assay type: biochemical
# T2 construct: purchased CEREP Panlabs (Eurofins)
# T2 sequence (P33981 1-857): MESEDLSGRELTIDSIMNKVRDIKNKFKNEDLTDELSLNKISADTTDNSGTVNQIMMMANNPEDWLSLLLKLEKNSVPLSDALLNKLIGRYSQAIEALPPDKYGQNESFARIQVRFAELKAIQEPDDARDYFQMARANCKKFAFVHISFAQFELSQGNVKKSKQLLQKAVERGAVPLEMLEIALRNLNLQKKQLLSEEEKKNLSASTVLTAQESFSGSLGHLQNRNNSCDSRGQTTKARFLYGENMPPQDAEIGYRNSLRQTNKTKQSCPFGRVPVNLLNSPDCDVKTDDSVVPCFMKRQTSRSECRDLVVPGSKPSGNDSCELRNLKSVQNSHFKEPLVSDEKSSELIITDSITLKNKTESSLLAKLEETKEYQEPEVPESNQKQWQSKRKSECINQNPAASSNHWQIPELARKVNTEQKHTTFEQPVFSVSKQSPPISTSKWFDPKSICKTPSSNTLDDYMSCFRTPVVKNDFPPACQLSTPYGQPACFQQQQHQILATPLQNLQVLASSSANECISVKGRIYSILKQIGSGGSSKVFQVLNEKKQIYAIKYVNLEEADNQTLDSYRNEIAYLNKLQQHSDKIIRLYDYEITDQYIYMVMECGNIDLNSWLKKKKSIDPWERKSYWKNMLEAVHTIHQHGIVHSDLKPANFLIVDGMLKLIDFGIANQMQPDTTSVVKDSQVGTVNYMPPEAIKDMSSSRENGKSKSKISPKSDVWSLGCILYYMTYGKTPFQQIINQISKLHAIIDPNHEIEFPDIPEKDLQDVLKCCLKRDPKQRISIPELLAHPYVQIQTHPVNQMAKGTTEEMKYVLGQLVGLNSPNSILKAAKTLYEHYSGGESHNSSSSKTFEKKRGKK
# DDR2 = molecular target: T3, DDR2 (Homo sapiens, UniProt Q16832); experiment: CEREP protein kinase assay; assay type: biochemical
# T3 construct: purchased CEREP Panlabs (Eurofins)
# T3 sequence (Q16832 22-855): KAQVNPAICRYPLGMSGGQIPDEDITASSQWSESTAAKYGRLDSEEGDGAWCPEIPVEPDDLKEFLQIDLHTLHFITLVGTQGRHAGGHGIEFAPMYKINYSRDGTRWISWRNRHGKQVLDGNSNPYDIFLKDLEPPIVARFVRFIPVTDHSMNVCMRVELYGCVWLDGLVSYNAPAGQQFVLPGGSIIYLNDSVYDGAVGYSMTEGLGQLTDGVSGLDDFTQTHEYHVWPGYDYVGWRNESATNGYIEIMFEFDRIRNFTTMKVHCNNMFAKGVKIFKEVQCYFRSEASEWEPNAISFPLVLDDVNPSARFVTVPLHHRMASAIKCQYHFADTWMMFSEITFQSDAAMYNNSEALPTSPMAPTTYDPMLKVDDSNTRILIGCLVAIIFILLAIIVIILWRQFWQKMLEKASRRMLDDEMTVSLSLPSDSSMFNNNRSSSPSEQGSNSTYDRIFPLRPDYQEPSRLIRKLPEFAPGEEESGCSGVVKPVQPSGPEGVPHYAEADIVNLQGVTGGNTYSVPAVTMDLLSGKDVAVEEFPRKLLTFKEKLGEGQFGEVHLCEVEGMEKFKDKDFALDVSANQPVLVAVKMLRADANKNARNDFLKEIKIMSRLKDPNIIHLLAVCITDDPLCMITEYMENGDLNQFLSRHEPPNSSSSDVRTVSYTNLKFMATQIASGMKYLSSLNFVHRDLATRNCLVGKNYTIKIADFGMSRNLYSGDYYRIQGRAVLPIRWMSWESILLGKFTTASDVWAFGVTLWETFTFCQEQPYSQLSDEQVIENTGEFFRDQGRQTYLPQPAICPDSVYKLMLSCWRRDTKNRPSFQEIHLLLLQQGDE
# [1] = RPMI media, read-out: Alamar Blue GI50 Regular folate
# [2] = low folate RPMI media, read-out: Alamar Blue GI50 Low folate
# T1 sequence (P53667 whole entry): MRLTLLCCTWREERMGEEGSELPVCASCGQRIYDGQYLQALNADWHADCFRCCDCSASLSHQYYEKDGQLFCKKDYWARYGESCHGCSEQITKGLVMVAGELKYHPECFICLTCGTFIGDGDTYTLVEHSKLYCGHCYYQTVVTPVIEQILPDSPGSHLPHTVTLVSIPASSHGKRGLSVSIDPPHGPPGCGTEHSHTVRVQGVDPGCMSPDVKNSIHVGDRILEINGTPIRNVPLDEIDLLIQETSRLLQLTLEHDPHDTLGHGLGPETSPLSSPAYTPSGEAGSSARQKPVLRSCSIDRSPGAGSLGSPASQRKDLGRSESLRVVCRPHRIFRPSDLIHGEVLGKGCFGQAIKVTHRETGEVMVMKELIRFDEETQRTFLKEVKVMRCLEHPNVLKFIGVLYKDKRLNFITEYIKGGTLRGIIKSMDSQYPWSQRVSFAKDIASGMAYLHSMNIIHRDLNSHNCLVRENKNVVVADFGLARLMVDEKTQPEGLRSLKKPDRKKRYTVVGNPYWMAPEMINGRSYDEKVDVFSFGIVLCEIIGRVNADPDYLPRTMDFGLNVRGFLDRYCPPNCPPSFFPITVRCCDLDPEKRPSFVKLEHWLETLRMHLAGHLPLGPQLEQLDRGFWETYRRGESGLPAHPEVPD
compound,measurement,setting,value
"O=c1[nH]ccc2cc(F)c(NS(=O)(=O)c3ccc(N4CC[C@@H](O)C4)s3)cc12 [LSN3213128, N-(6-Fluoro-1-oxo-1,2-dihydroisoquinolin-7-yl)-5-[(3R)-3-hydroxypyrrolidin-1-yl]thiophene-2-sulfonamide]",GI50,NCI-H1437 (lung); [1],1880 ± 894 nM
same,GI50,NCI-H1437 (lung); [2],0.73 nM
same,GI50,NCI-H1155 (lung); [1],729 ± 215 nM
same,GI50,NCI-H1155 (lung); [2],4.9 nM
same,GI50,NCI-H1993 (lung); [1],2680 ± 2540 nM
same,GI50,NCI-H1993 (lung); [2],3 ± 2.7 nM
same,GI50,SNU-16 (gastric); [1],1590 ± 1270 nM
same,GI50,SNU-16 (gastric); [2],1.2 ± 1.2 nM
same,GI50,HCT 116 (colon); [1],2810 ± 1220 nM
same,GI50,HCT 116 (colon); [2],2.2 ± 2.1 nM
same,GI50,MIA PaCa-2 (pancreas); [1],4870 ± 4200 nM
same,GI50,MIA PaCa-2 (pancreas); [2],1.6 ± 1 nM
same,GI50,"SW620 (colon); SW-620, RPMI media, read-out: Alamar Blue GI50 Regular folate",3910 ± 3240 nM
same,GI50,"SW620 (colon); SW-620, low folate RPMI media, read-out: Alamar Blue GI50 Low folate",8.8 ± 1.6 nM
same,inhibition at 0.2 µM,LIMK1; @ 0.2 uM,-7.18%
same,inhibition at 2 µM,LIMK1; @ 2 uM,5.89%
same,inhibition at 20 µM,LIMK1; @ 20 uM,0.523%
same,inhibition at 0.2 µM,TTK; @ 0.2 uM,-4.62%
same,inhibition at 2 µM,TTK; @ 2 uM,6.44%
same,inhibition at 20 µM,TTK; @ 20 uM,18.6%
same,inhibition at 0.2 µM,DDR2; @ 0.2 uM,-16.5%
same,inhibition at 2 µM,DDR2; @ 2 uM,-13.4%
same,inhibition at 20 µM,DDR2; @ 20 uM,-3.1%
